Measurements from patent US20200002303A1, “C-GLYCOSIDE COMPOUNDS USEFUL FOR TREATING DISEASE” (Fimbrion Therapeutics, Inc., priority 2016, published 2020).

Molecular target: T1, FimH (Escherichia coli, UniProt Q1R2J4)
T1 construct: performed with UTI89 bacteria and guinea pig red blood cells; endogenous in cells; host or cells: UTI89 bacteria (whole cells, type 1 piliated)
Assay type: cell-based
Conditions: concentration reducing bacterial agglutination of guinea pig red blood cells by greater than 90%; UTI89 bacteria
Method: The hemagglutination inhibition (HAI) assay was performed with UTI89 bacteria and guinea pig red blood cells, as previously described (S. J. Hultgren, W. R. Schwan, A. J. Schaeffer, J. L. Duncan Infect. Immun. 1986, 54, 613-620).

SMILES	HAI titer EC>90
O=C1NCCc2ccc(-c3ccc([C@@H](O)[C@H]4O[C@H](CO)[C@@H](O)[C@H](O)[C@@H]4O)c(C(F)(F)F)c3)cc21 [Example 33, 7-(4-((R)-Hydroxy ((2R,3S,4S,5S,6R)-3,4,5-trihydroxy-6-(hydroxymethyl)-tetrahydro-2H-pyran-2-yl)methyl)-3-(trifluoromethyl)phenyl)-3,4-dihydroisoquinolin-1 (2H)-one]	0.006 µM
CNC(=O)c1cccc(-c2ccc(C(F)(F)[C@H]3O[C@H](CO)[C@@H](O)[C@H](O)[C@@H]3O)c(C)c2)c1 [Example 9, 4′-(difluoro((2S,3S,4S,5S,6R)-3,4,5-trihydroxy-6-(hydroxymethyl)tetrahydro-2H-pyran-2-yl)methyl)-N,3′-dimethylbiphenyl-3-carboxamide]	1.5 µM
CNC(=O)c1cccc(-c2ccc([C@@H](N)[C@H]3O[C@H](CO)[C@@H](O)[C@H](O)[C@@H]3O)c(C)c2)c1 [Example 6, 4′-((R)-amino((2R,3S,4R,5S,6R)-3,4,5-trihydroxy-6-(hydroxymethyl)tetrahydro-2H-pyran-2-yl)methyl)-N,3′-dimethylbiphenyl-3-carboxamide]	0.5 µM
Cc1cc(-c2cn3ccccc3n2)ccc1[C@@H](O)[C@H]1O[C@H](CO)[C@@H](O)[C@H](O)[C@@H]1O [Example 36, (2R,3S,4S,5S,6R)-2-((R)-Hydroxy (4-(imidazo[1,2-a]pyridin-2-yl)-2-methylphenyl)methyl)-6-(hydroxymethyl)-tetrahydro-2H-pyran-3,4,5-triol]	0.019 µM
Cc1cc(-c2ccc3cc[nH]c(=O)c3c2)cc(C)c1[C@@H](O)[C@H]1OC(CO)[C@@H](O)[C@H](O)C1O (single isomer, unassigned) [Example 29]	0.108 µM
Cc1cc(-c2cccc3c(N)n[nH]c23)ccc1[C@@H](O)[C@H]1O[C@H](CO)[C@@H](O)[C@H](O)[C@@H]1O [Example 18, (2R,3S,4S,5S,6R)-2-((R)-(4-(3-Amino-1H-indazol-7-yl)-2-methylphenyl) (hydroxy)methyl)-6-(hydroxymethyl)-tetrahydro-2H-pyran-3,4,5-triol]	0.006 µM
Cc1cc(-c2ccc3onc(N)c3c2)ccc1[C@@H](O)[C@H]1O[C@H](CO)[C@@H](O)[C@H](O)[C@@H]1O [Example 28, (2R,3S,4S,5S,6R)-2-((R)-(4-(3-Aminobenzo[d]isoxazol-5-yl)-2-methylphenyl) (hydroxy)methyl)-6-(hydroxymethyl)-tetrahydro-2H-pyran-3,4,5-triol]	0.027 µM
CNc1cc(-c2ccc([C@@H](O)[C@H]3O[C@H](CO)[C@@H](O)[C@H](O)[C@@H]3O)c(C)c2)ccn1 [Example 24, (2R,3S,4S,5S,6R)-2-((R)-Hydroxy (2-methyl-4-(2-(methylamino)pyridin-4-yl)phenyl)methyl)-6-(hydroxymethyl)-tetrahydro-2H-pyran-3,4,5-triol]	0.032 µM
Cc1cc(-c2ccc3nc[nH]c3c2)ccc1[C@@H](O)[C@H]1O[C@H](CO)[C@@H](O)[C@H](O)[C@@H]1O [Example 17, (2R,3S,4S,5S,6R)-2-((R)-(4-(3H-Benzo[d]imidazol-5-yl)-2-methylphenyl) (hydroxy)methyl)-6-(hydroxymethyl)-tetrahydro-2H-pyran-3,4,5-triol]	0.037 µM
Cc1cc(-c2cccc(C(=O)Nc3ccccn3)c2)ccc1[C@@H](O)[C@H]1O[C@H](CO)[C@@H](O)[C@H](O)[C@@H]1O [Example 37, 4′-((R)-Hydroxy ((2R,3S,4S,5S,6R)-3,4,5-trihydroxy-6-(hydroxymethyl)-tetrahydro-2H-pyran-2-yl)methyl)-5′-methyl-N-(pyridin-2-yl)biphenyl-3-carboxamide]	0.012 µM
Cc1cc(-c2cccc3c2CCN(C)C3)ccc1[C@@H](O)[C@H]1O[C@H](CO)[C@@H](O)[C@H](O)[C@@H]1O [Example 5, (2R,3S,4S,5S,6R)-2-((R)-hydroxy(2-methyl-4-(2-methyl-1,2,3,4-tetrahydroisoquinolin-5-yl)phenyl)methyl)-6-(hydroxymethyl)tetrahydro-2H-pyran-3,4,5-triol]	1 µM
Cc1cc(-c2cccc(C(=O)N(C)C)c2)ccc1[C@@H](O)[C@H]1O[C@H](CO)[C@@H](O)[C@H](O)[C@@H]1O [Example 41, 4′-((R)-Hydroxy ((2R,3S,4S,5S,6R)-3,4,5-trihydroxy-6-(hydroxymethyl)-tetrahydro-2H-pyran-2-yl)methyl)-N,N,5′-trimethylbiphenyl-3-carboxamide]	0.057 µM
CNC(=O)c1cccc(-c2ccc([C@@H](N=[N+]=[N-])[C@H]3O[C@H](CO)[C@@H](O)[C@H](O)[C@@H]3O)c(C)c2)c1 [Example 44, 4′-((R)-azido((2R,3S,4R,5S,6R)-3,4,5-trihydroxy-6-(hydroxymethyl)tetrahydro-2H-pyran-2-yl)methyl)-N,3′-dimethylbiphenyl-3-carboxamide]	0.062 µM
Cc1cc(-c2ccc3ncn(C)c3c2)ccc1[C@@H](O)[C@H]1O[C@H](CO)[C@@H](O)[C@H](O)[C@@H]1O [Example 16, (2R,3S,4S,5S,6R)-2-((R)-Hydroxy (2-methyl-4-(3-methyl-3H-benzo[d]imidazol-5-yl)phenyl)methyl)-6-(hydroxymethyl)-tetrahydro-2H-pyran-3,4,5-triol]	0.042 µM
Cc1cc(-c2ccc3cnccc3c2)ccc1[C@@H](O)[C@H]1O[C@H](CO)[C@@H](O)[C@H](O)[C@@H]1O [Example 10, (2R,3S,4S,5S,6R)-2-((R)-Hydroxy (4-(isoquinolin-6-yl)-2-methylphenyl)methyl)-6-(hydroxymethyl)-tetrahydro-2H-pyran-3,4,5-triol]	0.052 µM
Cc1cc(-c2ccnc(N3CCOCC3)c2)ccc1[C@@H](O)[C@H]1O[C@H](CO)[C@@H](O)[C@H](O)[C@@H]1O [Example 25, (2R,3S,4S,5S,6R)-2-((R)-Hydroxy (2-methyl-4-(2-morpholinopyridin-4-yl)phenyl)methyl)-6-(hydroxymethyl)-tetrahydro-2H-pyran-3,4,5-triol]	0.006 µM
Cc1cc(-c2ccnc(-c3ccnc(Cl)c3)c2)ccc1[C@@H](O)[C@H]1O[C@H](CO)[C@@H](O)[C@H](O)[C@@H]1O [Example 23, (2R,3S,4S,5S,6R)-2-((R)-(4-(2′-Chloro-[2,4′-bipyridin]-4-yl)-2-methylphenyl) (hydroxy)methyl)-6-(hydroxymethyl)tetrahydro-2H-pyran-3,4,5-triol]	0.008 µM
CNC(=O)c1cccc(-c2ccc([C@@H](O)[C@H]3O[C@H](CO)[C@@H](O)[C@H](O)[C@@H]3O)c(Cl)c2)c1 [Example 45, 3′-chloro-4′-((R)-hydroxy((2R,3S,4S,5S,6R)-3,4,5-trihydroxy-6-(hydroxymethyl)tetrahydro-2H-pyran-2-yl)methyl)-N-methylbiphenyl-3-carboxamide]	0.047 µM
Cc1cc(-n2cc(-c3cccnc3)nn2)ccc1[C@@H](O)[C@H]1O[C@H](CO)[C@@H](O)[C@H](O)[C@@H]1O [Example 49, (2R,3S,4S,5S,6R)-2-((R)-hydroxy(2-methyl-4-(4-(pyridin-3-yl)-1H-1,2,3-triazol-1-yl)-phenyl)methyl)-6-(hydroxymethyl)tetrahydro-2H-pyran-3,4,5-triol]	0.015 µM
Cc1cc(-c2cccc(C#N)c2)ccc1[C@@H](O)[C@H]1O[C@H](CO)[C@@H](O)[C@H](O)[C@@H]1O [Example 51, 4′-((R)-hydroxy((2R,3S,4S,5S,6R)-3,4,5-trihydroxy-6-(hydroxymethyl)tetrahydro-2H-pyran-2-yl)methyl)-3′-methylbiphenyl-3-carbonitrile]	0.026 µM
Cc1cc(-c2ccnc(Cl)c2)ccc1[C@@H](O)[C@H]1O[C@H](CO)[C@@H](O)[C@H](O)[C@@H]1O [Example 22, (2R,3S,4S,5S,6R)-2-((R)-(4-(2-Chloropyridin-4-yl)-2-methylphenyl) (hydroxy)methyl)-6-(hydroxymethyl)-tetrahydro-2H-pyran-3,4,5-triol]	0.027 µM
